Activity calls are given as the source filed them. No cut-off for these calls is given here.
Assays:
[1] = tested on: Fibroblast growth factor receptor 3 (Homo sapiens), P22607 [G697C]; experiment: Inhibition of FGFR3 G697C mutant (unknown origin) assessed as remaining activity at 1 uM by Kinome scan method relative to control
[2] = target: RAC-gamma serine/threonine-protein kinase (Homo sapiens) (UniProt Q9Y243); experiment: Inhibition of AKT3 (unknown origin) assessed as remaining activity at 1 uM by Kinome scan method relative to control
RAC-gamma serine/threonine-protein kinase (Homo sapiens), sequence (Q9Y243 whole entry): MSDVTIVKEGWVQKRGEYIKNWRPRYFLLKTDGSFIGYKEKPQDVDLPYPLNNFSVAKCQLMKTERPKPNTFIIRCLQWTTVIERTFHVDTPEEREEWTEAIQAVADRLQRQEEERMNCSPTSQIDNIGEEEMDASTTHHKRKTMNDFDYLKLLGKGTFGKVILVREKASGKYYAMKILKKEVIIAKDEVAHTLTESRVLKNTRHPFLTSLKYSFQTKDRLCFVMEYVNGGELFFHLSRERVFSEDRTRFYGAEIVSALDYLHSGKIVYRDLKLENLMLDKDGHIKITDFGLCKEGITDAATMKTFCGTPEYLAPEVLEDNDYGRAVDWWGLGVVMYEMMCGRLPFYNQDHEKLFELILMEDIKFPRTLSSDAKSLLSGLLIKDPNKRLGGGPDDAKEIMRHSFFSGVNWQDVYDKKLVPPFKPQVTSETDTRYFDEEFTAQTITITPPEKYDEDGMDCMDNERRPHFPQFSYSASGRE

[3] = target: Proto-oncogene tyrosine-protein kinase Src (Homo sapiens) (UniProt P12931); experiment: Inhibition of SRC (unknown origin) assessed as remaining activity at 1 uM by Kinome scan method relative to control
[4] = tested on: Tyrosine-protein kinase ABL1 (Homo sapiens), P00519 [H396P]; experiment: Inhibition of ABL1 H396P mutant (unknown origin) assessed as remaining activity at 1 uM by Kinome scan method relative to control
[5] = Inhibition of PI3K/AKT/mTOR signalling pathway in human RV-1 cells assessed as decrease in GSKalpha/beta phosphorylation at 2.5 uM incubated for 4 hrs by immunoblot analysis; assay type: cell-based
[6] = tested on: Tyrosine-protein kinase ABL1 (Homo sapiens), P00519 [T315I]; experiment: Inhibition of ABL1 T315I mutant (unknown origin) assessed as remaining activity at 1 uM by Kinome scan method relative to control
[7] = Inhibition of PI3K/AKT/mTOR signalling pathway in human RV-1 cells assessed as decrease in S6K phosphorylation at T389 residue at 2.5 uM incubated for 5 days by immunoblot analysis; assay type: cell-based; conditions: time 5.0 day
[8] = target: Cyclin-dependent kinase 18 (Homo sapiens) (UniProt Q07002); experiment: Inhibition of PCTK3 (unknown origin) assessed as remaining activity at 1 uM by Kinome scan method relative to control
Cyclin-dependent kinase 18 (Homo sapiens), sequence (Q07002 whole entry): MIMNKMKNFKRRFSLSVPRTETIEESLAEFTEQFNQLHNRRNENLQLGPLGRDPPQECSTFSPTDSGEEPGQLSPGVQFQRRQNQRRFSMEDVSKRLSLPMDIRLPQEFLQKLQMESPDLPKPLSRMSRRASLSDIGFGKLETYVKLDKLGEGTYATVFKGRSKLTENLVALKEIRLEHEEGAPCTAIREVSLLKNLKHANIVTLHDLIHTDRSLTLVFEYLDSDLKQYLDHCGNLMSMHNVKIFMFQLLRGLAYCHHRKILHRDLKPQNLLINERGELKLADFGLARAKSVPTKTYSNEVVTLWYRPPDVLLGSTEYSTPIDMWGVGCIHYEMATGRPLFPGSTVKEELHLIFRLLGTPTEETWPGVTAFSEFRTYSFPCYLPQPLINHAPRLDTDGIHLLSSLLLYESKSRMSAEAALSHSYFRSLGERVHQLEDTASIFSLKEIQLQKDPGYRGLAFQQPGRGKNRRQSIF

[9] = Down regulation of BMX protein expression in human RV-1 cells expressing BMX C496S mutant assessed protein expression level at 2.5 uM pre incubated for 4 hrs followed by compound wash out and additon of CHX and measured after 16 hrs by immunoblot analysis (reference value: 1.01 to 1.13); assay type: functional
[10] = target: Fibroblast growth factor receptor 1 (Homo sapiens) (UniProt P11362); experiment: Inhibition of FGFR1 (unknown origin) assessed as remaining activity at 1 uM by Kinome scan method relative to control
[11] = tested on: Mast/stem cell growth factor receptor Kit (Homo sapiens), P10721 [D816H]; experiment: Inhibition of KIT D816H mutant (unknown origin) assessed as remaining activity at 1 uM by Kinome scan method relative to control
Mast/stem cell growth factor receptor Kit (Homo sapiens), P10721 [D816H], sequence (P10721 whole entry D816H): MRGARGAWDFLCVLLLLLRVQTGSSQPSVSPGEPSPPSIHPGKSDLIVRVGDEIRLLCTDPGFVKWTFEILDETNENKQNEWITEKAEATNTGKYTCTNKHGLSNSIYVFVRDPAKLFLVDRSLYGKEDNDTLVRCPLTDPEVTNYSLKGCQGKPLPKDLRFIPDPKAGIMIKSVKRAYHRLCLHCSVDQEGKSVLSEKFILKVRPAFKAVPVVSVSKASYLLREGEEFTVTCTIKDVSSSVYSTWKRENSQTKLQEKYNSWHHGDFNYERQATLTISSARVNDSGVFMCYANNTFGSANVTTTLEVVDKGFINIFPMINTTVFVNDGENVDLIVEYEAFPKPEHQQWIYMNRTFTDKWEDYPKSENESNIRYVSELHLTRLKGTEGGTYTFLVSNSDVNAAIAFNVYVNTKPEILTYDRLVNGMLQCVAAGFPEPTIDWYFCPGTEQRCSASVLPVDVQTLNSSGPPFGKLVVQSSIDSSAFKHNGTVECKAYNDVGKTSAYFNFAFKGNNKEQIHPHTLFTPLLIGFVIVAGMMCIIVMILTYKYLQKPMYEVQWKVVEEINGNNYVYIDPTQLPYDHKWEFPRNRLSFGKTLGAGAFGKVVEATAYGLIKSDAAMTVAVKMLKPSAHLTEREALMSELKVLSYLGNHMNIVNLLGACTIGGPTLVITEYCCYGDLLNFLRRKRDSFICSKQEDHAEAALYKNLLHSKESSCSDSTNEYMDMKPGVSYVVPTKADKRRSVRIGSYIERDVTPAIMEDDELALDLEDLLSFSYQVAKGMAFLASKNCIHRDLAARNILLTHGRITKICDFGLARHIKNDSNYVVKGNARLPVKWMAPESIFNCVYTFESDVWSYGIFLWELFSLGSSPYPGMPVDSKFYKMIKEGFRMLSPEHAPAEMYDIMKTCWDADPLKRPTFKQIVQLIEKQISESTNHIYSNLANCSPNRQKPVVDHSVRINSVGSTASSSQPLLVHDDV

RV-1 [12] = experiment: Antiproliferative activity against human RV-1 cells assessed as reduction in cell viability at 500 to 2500 nM incubated for 5 days in presence of lapatinib by CellTiter-Glo assay; assay type: functional, cell-based; conditions: dose 500-2500 nM, time 5.0 day
[13] = target: Cyclin-G-associated kinase (Homo sapiens) (UniProt O14976); experiment: Inhibition of GAK (unknown origin) assessed as remaining activity at 1 uM by Kinome scan method relative to control
Cyclin-G-associated kinase (Homo sapiens), sequence (O14976 whole entry): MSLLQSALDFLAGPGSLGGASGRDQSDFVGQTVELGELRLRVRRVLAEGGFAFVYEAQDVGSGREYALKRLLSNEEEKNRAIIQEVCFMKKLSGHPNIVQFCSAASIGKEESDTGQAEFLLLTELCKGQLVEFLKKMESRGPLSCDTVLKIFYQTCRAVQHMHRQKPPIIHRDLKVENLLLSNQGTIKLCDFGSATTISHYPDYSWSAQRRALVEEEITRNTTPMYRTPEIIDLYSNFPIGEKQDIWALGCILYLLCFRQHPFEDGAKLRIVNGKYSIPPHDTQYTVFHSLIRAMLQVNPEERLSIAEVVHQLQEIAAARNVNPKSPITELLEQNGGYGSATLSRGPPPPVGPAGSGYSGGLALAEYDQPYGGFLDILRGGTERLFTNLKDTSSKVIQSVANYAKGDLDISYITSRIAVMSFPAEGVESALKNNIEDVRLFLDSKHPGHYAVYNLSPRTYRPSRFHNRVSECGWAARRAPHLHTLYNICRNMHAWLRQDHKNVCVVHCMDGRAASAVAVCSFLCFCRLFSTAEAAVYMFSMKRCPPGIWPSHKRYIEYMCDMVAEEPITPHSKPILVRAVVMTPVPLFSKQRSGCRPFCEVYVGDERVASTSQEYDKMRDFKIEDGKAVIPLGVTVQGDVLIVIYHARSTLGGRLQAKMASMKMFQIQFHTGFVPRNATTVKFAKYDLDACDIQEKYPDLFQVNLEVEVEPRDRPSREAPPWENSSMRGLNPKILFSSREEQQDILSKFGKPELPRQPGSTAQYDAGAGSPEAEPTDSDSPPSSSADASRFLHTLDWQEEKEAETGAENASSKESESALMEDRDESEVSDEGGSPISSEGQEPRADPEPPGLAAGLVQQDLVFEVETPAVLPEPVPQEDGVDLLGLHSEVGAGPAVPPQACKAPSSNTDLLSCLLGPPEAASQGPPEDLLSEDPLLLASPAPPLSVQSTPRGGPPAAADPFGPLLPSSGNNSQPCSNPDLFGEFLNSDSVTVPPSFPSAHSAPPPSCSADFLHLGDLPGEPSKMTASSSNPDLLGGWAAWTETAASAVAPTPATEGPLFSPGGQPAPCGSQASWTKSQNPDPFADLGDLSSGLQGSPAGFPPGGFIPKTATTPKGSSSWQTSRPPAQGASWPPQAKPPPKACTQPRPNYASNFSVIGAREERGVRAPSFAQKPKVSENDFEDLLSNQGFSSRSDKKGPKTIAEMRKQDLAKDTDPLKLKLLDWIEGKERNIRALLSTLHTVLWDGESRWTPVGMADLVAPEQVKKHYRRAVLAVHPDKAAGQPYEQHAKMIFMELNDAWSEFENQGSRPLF

[14] = target: Serine/threonine-protein kinase 10 (Homo sapiens) (UniProt O94804); experiment: Inhibition of LOK (unknown origin) assessed as remaining activity at 1 uM by Kinome scan method relative to control
[15] = target: Serine/threonine-protein kinase tousled-like 1 (Homo sapiens) (UniProt Q9UKI8); experiment: Inhibition of TLK1 (unknown origin) assessed as remaining activity at 1 uM by Kinome scan method relative to control
Serine/threonine-protein kinase tousled-like 1 (Homo sapiens), sequence (Q9UKI8 whole entry): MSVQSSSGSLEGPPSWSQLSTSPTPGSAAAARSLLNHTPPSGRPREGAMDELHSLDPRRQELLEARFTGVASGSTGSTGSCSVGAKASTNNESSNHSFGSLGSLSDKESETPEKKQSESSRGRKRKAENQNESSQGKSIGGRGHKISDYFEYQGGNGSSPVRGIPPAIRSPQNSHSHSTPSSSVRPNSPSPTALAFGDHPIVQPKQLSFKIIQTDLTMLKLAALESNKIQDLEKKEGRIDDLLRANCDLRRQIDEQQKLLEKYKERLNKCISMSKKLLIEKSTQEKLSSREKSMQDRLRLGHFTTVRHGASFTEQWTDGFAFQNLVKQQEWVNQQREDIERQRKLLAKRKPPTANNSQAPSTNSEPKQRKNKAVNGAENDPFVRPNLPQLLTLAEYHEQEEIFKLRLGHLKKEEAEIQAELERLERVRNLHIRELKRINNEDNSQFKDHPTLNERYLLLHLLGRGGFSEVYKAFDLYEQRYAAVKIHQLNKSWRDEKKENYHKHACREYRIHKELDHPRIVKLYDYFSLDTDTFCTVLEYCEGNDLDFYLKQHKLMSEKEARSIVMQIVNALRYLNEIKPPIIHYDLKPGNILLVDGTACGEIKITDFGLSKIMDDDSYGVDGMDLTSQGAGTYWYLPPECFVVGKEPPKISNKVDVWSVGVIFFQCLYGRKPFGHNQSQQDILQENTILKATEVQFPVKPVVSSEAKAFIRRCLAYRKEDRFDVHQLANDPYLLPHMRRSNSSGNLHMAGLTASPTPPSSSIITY

[16] = Inhibition of PI3K/AKT/mTOR signalling pathway in human RV-1 cells assessed as decrease in S6K phosphorylation at T389 residue at 2.5 uM incubated for 4 hrs by immunoblot analysis; assay type: cell-based
[17] = Inhibition of PI3K/AKT/mTOR signalling pathway in human RV-1 cells assessed as decrease in 4EBP phosphorylation at T37/46 residue at 2.5 uM incubated for 4 hrs by immunoblot analysis; assay type: cell-based
[18] = target: Mitogen-activated protein kinase 14 (Homo sapiens) (UniProt Q16539); experiment: Inhibition of P38alpha (unknown origin) assessed as remaining activity at 1 uM by Kinome scan method relative to control
[19] = target: Phosphatidylinositol 5-phosphate 4-kinase type-2 beta (Homo sapiens) (UniProt P78356); experiment: Inhibition of PIP5K2B (unknown origin) assessed as remaining activity at 1 uM by Kinome scan method relative to control
[20] = target: Serine/threonine-protein kinase Nek4 (Homo sapiens) (UniProt P51957); experiment: Inhibition of NEK4 (unknown origin) assessed as remaining activity at 1 uM by Kinome scan method relative to control
RV-1 [21] = experiment: Antiproliferative activity against human RV-1 cells assessed as reduction in cell viability at 500 to 2500 nM incubated for 5 days in presence of WYE125132 by CellTiter-Glo assay; assay type: functional, cell-based; conditions: dose 500-2500 nM, time 5.0 day
[22] = target: RAC-alpha serine/threonine-protein kinase (Homo sapiens) (UniProt P31749); experiment: Inhibition of AKT1 (unknown origin) assessed as remaining activity at 1 uM by Kinome scan method relative to control
RAC-alpha serine/threonine-protein kinase (Homo sapiens), sequence (P31749 whole entry, canonical isoform): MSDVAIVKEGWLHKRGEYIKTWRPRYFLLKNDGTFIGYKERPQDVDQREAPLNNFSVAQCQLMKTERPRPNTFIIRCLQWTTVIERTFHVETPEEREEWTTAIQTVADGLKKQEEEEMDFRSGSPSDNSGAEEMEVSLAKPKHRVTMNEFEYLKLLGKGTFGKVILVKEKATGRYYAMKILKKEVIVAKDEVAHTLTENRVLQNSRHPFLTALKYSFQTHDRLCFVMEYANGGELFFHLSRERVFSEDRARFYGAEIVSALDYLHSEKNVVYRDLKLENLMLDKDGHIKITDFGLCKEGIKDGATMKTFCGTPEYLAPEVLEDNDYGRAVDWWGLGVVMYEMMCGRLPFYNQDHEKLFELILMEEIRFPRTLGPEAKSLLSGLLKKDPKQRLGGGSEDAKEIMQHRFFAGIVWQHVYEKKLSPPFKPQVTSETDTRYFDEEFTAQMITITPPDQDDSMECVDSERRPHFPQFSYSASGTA

[23] = tested on: Phosphatidylinositol 4,5-bisphosphate 3-kinase catalytic subunit alpha isoform (Homo sapiens), P42336 [I800L]; experiment: Inhibition of PIK3CA I800L mutant (unknown origin) assessed as remaining activity at 1 uM by Kinome scan method relative to control
[24] = Inhibition of PI3K/AKT/mTOR signalling pathway in human RV-1 cells assessed as decrease in 4EBP phosphorylation at T37/46 residue at 2.5 uM incubated for 5 days by immunoblot analysis; assay type: cell-based; conditions: time 5.0 day
[25] = target: Cyclin-dependent kinase 5 (Homo sapiens) (UniProt Q00535); experiment: Inhibition of CDK5 (unknown origin) assessed as remaining activity at 1 uM by Kinome scan method relative to control
Cyclin-dependent kinase 5 (Homo sapiens), sequence (Q00535 whole entry, looked up): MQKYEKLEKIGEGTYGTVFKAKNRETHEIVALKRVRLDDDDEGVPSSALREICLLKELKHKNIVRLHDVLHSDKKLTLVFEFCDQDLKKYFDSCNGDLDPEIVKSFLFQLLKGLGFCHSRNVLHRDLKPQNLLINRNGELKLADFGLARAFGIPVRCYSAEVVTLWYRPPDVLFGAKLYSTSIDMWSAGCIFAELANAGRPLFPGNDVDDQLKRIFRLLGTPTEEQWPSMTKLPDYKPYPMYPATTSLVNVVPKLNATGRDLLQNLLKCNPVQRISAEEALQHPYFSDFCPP

RV-1 [26] = experiment: Antiproliferative activity against human RV-1 cells assessed as reduction in cell viability at 500 to 2500 nM incubated for 5 days in presence of GDC0941 by CellTiter-Glo assay; assay type: functional, cell-based; conditions: dose 500-2500 nM, time 5.0 day
[27] = target: Insulin receptor-related protein (Homo sapiens) (UniProt P14616); experiment: Inhibition of INSRR (unknown origin) assessed as remaining activity at 1 uM by Kinome scan method relative to control
RV-1 [28] = experiment: Induction of apoptosis in human RV-1 cells assessed as decrease in number of cell at 5 uM incubated for 3 days by Hoechst 33342 staining based analysis; assay type: functional; conditions: time 3.0 day
[29] = target: Non-receptor tyrosine-protein kinase TYK2 (Homo sapiens) (UniProt P29597); experiment: Inhibition of TYK2 JH1 domain (unknown origin) assessed as remaining activity at 1 uM by Kinome scan method relative to control
[30] = target: Mitogen-activated protein kinase 12 (Homo sapiens) (UniProt P53778); experiment: Inhibition of P38gamma (unknown origin) assessed as remaining activity at 1 uM by Kinome scan method relative to control
[31] = target: LIM domain kinase 2 (Homo sapiens) (UniProt P53671); experiment: Inhibition of LIMK2 (unknown origin) assessed as remaining activity at 1 uM by Kinome scan method relative to control
DU-145 = experiment: Antiproliferative activity against human DU-145 cells assessed growth inhibition incubated for 2 to 5 days by CellTiter-Glo assay; assay type: functional; conditions: time 2-5 day

Compound: C=CC(=O)Nc1cc(-n2c(=O)ccc3cnc4ccc(-c5ccc(NS(C)(=O)=O)cc5)cc4c32)ccc1C
- Activity [1]: 26%
- Activity [2]: 75%
- Activity [3]: 92%
- Activity [4]: 74%
- inhibition [5]: inactive
- Activity [6]: 87%
- inhibition [7]: Active
- Activity [8]: 83%
- Activity [9]: 0.74
- Activity [10]: 92%
- Activity [11]: 99%
- Activity (RV-1 [12]): Active
- Activity [13]: 74%
- Activity [14]: 87%
- Activity [15]: 86%
- inhibition [16]: inactive
- inhibition [17]: inactive
- Activity [18]: 98%
- Activity [19]: 93%
- Activity [20]: 81%
- Activity (RV-1 [21]): Active
- Activity [22]: 12%
- Activity [23]: 46%
- inhibition [24]: Active
- Activity [25]: 88%
- Activity (RV-1 [26]): Active
- Activity [27]: 98%
- Activity (RV-1 [28]): Active
- Activity [29]: 80%
- Activity [30]: 72%
- Activity [31]: 92%
- GI50 (DU-145): 4.38 µM
